Laboratory results as given in patent publication US10493100B2, “Pharmaceutical composition for preventing or treating brain cancer including crystal polymorph of tetraarsenic hexoxide, and method for preparing same” (CHEMAS CO., LTD., priority 2016, dated 2019).

Key:
[1] = tested on: human brain glioblastoma cell line U-118MG; assay: Cell proliferation assay (MTT assay), U-118MG; assay type: cell-based
Method: (§1) Fetal bovine serum (FBS) and cell culture medium were prepared (Hyclone), and dimethyl sulfoxide (DMSO) and 3-(4,5-dimetyl-thiazol-2yl)-2,5-diphenyltetrazolium bromide (MTT, Amresco LLC, USC) were prepared.
(§2) As human cancer cell lines, human brain glioblastoma cell lines U-87MG and U-118MG were obtained from the Shanghai Cell Bank of Chinese Academy of Sciences. The cells were incubated in Eagle's Minimum Essential Medium (EMEM), supplemented with 10% FBS, 100 U/ml penicillin, and 100 μg/ml streptomycin according to the culture condition, in a humidified incubator with 5% CO2 and 95% air. The medium was exchanged every three days.
(§3) The effects of Example 1 and Comparative Examples 1 to 3 on cell proliferation were assessed using MTT assay. MTT assay is based on the ability of viable cells against MTT to produce insoluble dark blue formazan products. After the cells were suspended in the medium by trypsin treatment and collected, the cells were dispensed at a density of 4×10^3 cells/well in a 96-well culture dish (Costar, Cambridge, Mass., USA). After 24 hours, Example 1 and Comparative Examples 1 to 3 as treatment samples were added, at 0, 0.625, 1.25, 2.5, 5, 10, 20, 40, or 80 μM, to the cells in the media containing 10% FBS, and then the cells were incubated. […] All the crystals were completely dissolved by standing at room temperature for 15 minutes, and the absorbance was measured using a micro-plate reader at a wavelength of 570 nm (A570 nm).
(§4) The absorbance value of the control group treated without the sample was calculated as 100, and the absorbance value of the treatment group treated with the sample, compared with that of the control group, was calibrated, and the percentage of inhibition of cell proliferation was calculated according to the following equation. Percentage (%) of inhibition of cell proliferation=((mean absorbance of control group cells−mean absorbance of treatment group cells)/mean absorbance of control group cells)×100
(§5) All data were expressed as mean±standard error of the mean (mean±SEM). […]

[2] = tested on: human brain glioblastoma cell line U-87MG; assay: Cell proliferation assay (MTT assay), U-87MG; assay type: cell-based
Method: as §1, §2, §3, §4, §5

[3] = tested on: U-87MG cells labeled with luciferase; assay: In vivo efficacy test, tumor imaging signal in animal models transplanted with human brain glioblastoma cell line; design: species or system Balb/C female nude mice; conditions: 2.25 mg/kg once daily
Method: (§6) The human brain glioblastoma cell line U-87MG (purchased from ATCC) was incubated in Eagle's Minimum Essential Medium (EMEM) supplemented with 10% FBS, 100 U/ml penicillin, and 100 μg/ml streptomycin in an incubator under conditions of 37° C., 5% CO2, and 95% air. The medium was exchanged every three days.
(§7) The U-87MG cells labeled with luciferase were inoculated into the primary site of the brain in […] Balb/C female nude mice weighing 16-19 g, and the amount of cells inoculated was 5×10^5/5 uL. The animals were subjected to imaging examinations on the 6th day after the inoculation, when the surgical sites of the animals were restored and the tumor cells were slightly grown. The animals were randomly divided into two groups, four animals for each group, according to the imaging results. A test group was administered with a solution containing Example 1 dissolved in physiological saline (0.9% NaCl), and a control group was administered with only physiological saline, which is a solvent used for the test group. The animals of the two groups were administered once daily with physiological saline or 2.25 mg/kg Example 1. The dose was 10 uL/g on the basis of the weight of the animals. During the administration, the weight and health conditions of the animals were continuously monitored, and at the same time, the animals were subjected to image examination.

gliomatosis cerebri = assay: Clinical Test-1: patient; assay type: in vivo, human
Method: (§8) The following clinical tests were conducted using the composition of Example 1.
From the 10th day after the diagnosis, mobility weakening and trembling symptoms of both arms began to appear and then proceeded rapidly. […] Pre-treatment MRI images of this patient are shown in FIG. 4, and MRI images after two months and three months of radiotherapy together with administration of Example 1 are shown in FIGS. 5 and 6, respectively.

[4] = Weight measurement in animal models transplanted with human brain glioblastoma cell line; assay type: in vivo, Balb/C female nude mice
Method: as §6, §7

[5] = tested on: glioblastoma in the left parieto-temporal lobe; assay: Clinical Test-2: patient; assay type: in vivo, human; conditions: after surgery, radiotherapy and Tremodal
Method: as §8
This patient with symptoms of headache, vomiting, diplopia, and visual field defect was diagnosed with glioblastoma in the left parieto-temporal lobe. On the 3rd day after the diagnosis, tumor removal was conducted by surgery, and the tumor was confirmed as glioblastoma of the WHO grade IV/IV as a result of pathologic diagnosis. Radiotherapy with Tremodal treatment (61.2 Gy/33fx) was performed from the 45th day to the 90th day after the diagnosis. The remaining tumors were still confirmed on MRI images after the radiotherapy and Tremodal treatment. From the 95th day after the diagnosis, 5 mg of Example 1 was administered three times a day for 17 months. […] The pre-treatment MRI images of this patient are shown in FIG. 7, and MRI images after the surgery and radiotherapy are shown in FIG. 8. Respective images after four months, seven months, and ten months of administration of Example 1 are shown in FIGS. 9A, 9B, and 9C, respectively.

[6] = compared with Comparative Example 2 or 3 (4:1 or 1:1 mixtures)
[7] = from the 7th day of administration (FIG. 10A)

With tetraarsenic hexoxide [Example 1] the “percentage of inhibition of brain glioblastoma cell proliferation” value [1, 6] was “higher”, the “percentage of inhibition of brain glioblastoma cell proliferation” value ([1]; incubation 48 hours (FIG. 3A), compared with Comparative Example 1) was “higher” and the “percentage of inhibition of brain glioblastoma cell proliferation” value ([1]; incubation 72 hours (FIG. 3B), compared with Comparative Example 1) was “higher”. For the same substance, the “percentage of inhibition of brain glioblastoma cell proliferation” value [2, 6] was “higher”, the “percentage of inhibition of brain glioblastoma cell proliferation” value ([2]; incubation 48 hours (FIG. 2A), compared with Comparative Example 1) was “higher” and the “percentage of inhibition of brain glioblastoma cell proliferation” value ([2]; incubation 72 hours (FIG. 2B), compared with Comparative Example 1) was “higher”. The “luminescence signal intensities due to the proliferation and metastasis of tumors” value ([3]; 7th and 9th days of administration (FIG. 10B), control group vs test group) was “in the control group were much stronger than those in the test group”, the tumor signal intensities [3, 7] was “significantly light” and the “tumor signals in the spine (tumor metastasis into the spine)” value [3, 7] was “hardly observed in the spine”. The “mobility weakening and trembling symptoms” value (gliomatosis cerebri; 15 mg per day from the 17th day after the diagnosis, before radiotherapy) was “began to improve”, the symptoms (gliomatosis cerebri; 15 mg per day together with radiotherapy from the 27th to the 75th day after the diagnosis) was “the symptoms disappeared completely” and the “tumor size on MRI images” value (gliomatosis cerebri; after three months of radiotherapy together with administration (FIG. 6)) was “tumors almost disappeared”. The “tumor size on MRI images” value (gliomatosis cerebri; after two months of radiotherapy together with administration (FIG. 5)) was “tumor sizes were reduced”, the “Body change 9 days after the first administration” value ([4]; 2.25 mg/kg once daily) was -0.8 g and the “Weight 9 days after the first administration” value ([4]; 2.25 mg/kg once daily, mean ± SEM, 4 animals) was 16.1 ± 0.5 g. The “weight after 9 days of drug administration (in words)” value ([4]; 2.25 mg/kg once daily, control group largely reduced) was “almost unchanged weight”, the Weight before administration ([4]; test group, mean ± SEM, 4 animals, baseline) was 16.9 ± 0.2 g and the “sizes of remaining tumors (MRI)” value ([5]; 5 mg three times a day for 17 months) was “confirmed to decrease”. For the same substance, the subjective symptoms ([5]; 5 mg three times a day, from 2 months of administration) was “no subjective symptom”.
